Reference: ChEMBL document CHEMBL3885881, “DrugMatrix”

Species on record: Rattus norvegicus
Test: DrugMatrix - Regimen: Daily Repeat
Type: toxicity, organism-based, Sprague-Dawley
Design: regimen Daily Repeat, gender Male, age 6-8 weeks
Settings: in vivo, sc, 0 mg/kg, route mini-PUMP - SUBCUTANEOUS, dose level Control, vehicle 100 % SALINE; for ABSOLUTE BASOPHIL / ABSOLUTE EOSINOPHIL / ABSOLUTE LYMPHOCYTE / ABSOLUTE MONOCYTE / ABSOLUTE SEGMENTED NEUTROPHIL / BASOPHIL / EOSINOPHIL / ERYTHROCYTE COUNT / HEMATOCRIT / HEMOGLOBIN / LEUKOCYTE COUNT / LYMPHOCYTE / MEAN CORPUSCULAR HEMOGLOBIN / MEAN CORPUSCULAR HEMOGLOBIN CONCENTRATION / MEAN CORPUSCULAR VOLUME / MONOCYTE / NEUTROPHIL / NUCLEATED RED BLOOD CELLS / PLATELET COUNT: tissue Blood; for ALANINE AMINOTRANSFERASE / ALBUMIN / ALKALINE PHOSPHATASE / ASPARTATE AMINOTRANSFERASE / BLOOD UREA NITROGEN / CARBON DIOXIDE / CHLORIDE / CHOLESTEROL / CREATININE / GLUCOSE / LACTATE DEHYDROGENASE / LIPASE / PHOSPHORUS / POTASSIUM / SODIUM / TOTAL BILIRUBIN / TOTAL PROTEIN / URIC ACID: tissue Plasma

## C[C@]12CCC(=O)C=C1CC[C@@H]1[C@@H]2[C@@H](O)C[C@]2(C=O)[C@@H](C(=O)CO)CC[C@@H]12 [ALDOSTERONE]
72 h, time 3 day
  ABSOLUTE BASOPHIL: 0 CELLS/uL
  ABSOLUTE EOSINOPHIL: 77.17 CELLS/uL
  ABSOLUTE LYMPHOCYTE: 14293.83 CELLS/uL
  ABSOLUTE MONOCYTE: 354 CELLS/uL
  ABSOLUTE SEGMENTED NEUTROPHIL: 1658.33 CELLS/uL
  BASOPHIL: 0%
  EOSINOPHIL: 0.5%
  ERYTHROCYTE COUNT: 6.27 x10E6/uL
  HEMATOCRIT: 36.95%
  HEMOGLOBIN: 13.4 G/DL
  LEUKOCYTE COUNT: 16.38 x10E3/uL
  LYMPHOCYTE: 87.17%
  MEAN CORPUSCULAR HEMOGLOBIN: 21.42 pg
  MEAN CORPUSCULAR HEMOGLOBIN CONCENTRATION: 36.27 G/DL
  MEAN CORPUSCULAR VOLUME: 59.03 fL
  MONOCYTE: 2%
  NEUTROPHIL: 10.33%
  NUCLEATED RED BLOOD CELLS: 0 /100WBC
  PLATELET COUNT: 904.67 x10E3/uL
  ALANINE AMINOTRANSFERASE: 48.33 u/L
  ALBUMIN: 3.82 G/DL
  ALKALINE PHOSPHATASE: 282.33 u/L
  ASPARTATE AMINOTRANSFERASE: 86.83 u/L
  BLOOD UREA NITROGEN: 20.17 mg/dL
  CARBON DIOXIDE: 34.67 mmol/L
  CHLORIDE: 102 MEQ/L
  CHOLESTEROL: 71.5 mg/dL
  CREATININE: 0.2 mg/dL
  GLUCOSE: 136.83 mg/dL
  LACTATE DEHYDROGENASE: 159 u/L
  LIPASE: 9 u/L
  PHOSPHORUS: 10.12 mg/dL
  POTASSIUM: 5.92 MEQ/L
  SODIUM: 147.8 MEQ/L
  TOTAL BILIRUBIN: 0.2 mg/dL
  TOTAL PROTEIN: 6.05 G/DL
  URIC ACID: 1.4 mg/dL
120 h, time 5 day
  ABSOLUTE BASOPHIL: 0 CELLS/uL
  ABSOLUTE EOSINOPHIL: 0 CELLS/uL
  ABSOLUTE LYMPHOCYTE: 14257.33 CELLS/uL
  ABSOLUTE MONOCYTE: 326 CELLS/uL
  ABSOLUTE SEGMENTED NEUTROPHIL: 3216.67 CELLS/uL
  BASOPHIL: 0%
  EOSINOPHIL: 0%
  ERYTHROCYTE COUNT: 6.11 x10E6/uL
  HEMATOCRIT: 36.22%
  HEMOGLOBIN: 13.18 G/DL
  LEUKOCYTE COUNT: 17.8 x10E3/uL
  LYMPHOCYTE: 80.5%
  MEAN CORPUSCULAR HEMOGLOBIN: 21.62 pg
  MEAN CORPUSCULAR HEMOGLOBIN CONCENTRATION: 36.42 G/DL
  MEAN CORPUSCULAR VOLUME: 59.37 fL
  MONOCYTE: 1.83%
  NEUTROPHIL: 17.67%
  NUCLEATED RED BLOOD CELLS: 0 /100WBC
  PLATELET COUNT: 1311 x10E3/uL
  ALANINE AMINOTRANSFERASE: 47 u/L
  ALBUMIN: 3.83 G/DL
  ALKALINE PHOSPHATASE: 260.33 u/L
  ASPARTATE AMINOTRANSFERASE: 76.17 u/L
  BLOOD UREA NITROGEN: 14.67 mg/dL
  CARBON DIOXIDE: 31.33 mmol/L
  CHLORIDE: 101.17 MEQ/L
  CHOLESTEROL: 75 mg/dL
  CREATININE: 0.16 mg/dL
  GLUCOSE: 152.67 mg/dL
  LACTATE DEHYDROGENASE: 147.33 u/L
  LIPASE: 9.33 u/L
  PHOSPHORUS: 10.97 mg/dL
  POTASSIUM: 6 MEQ/L
  SODIUM: 145.52 MEQ/L
  TOTAL BILIRUBIN: 0.17 mg/dL
  TOTAL PROTEIN: 5.83 G/DL
  URIC ACID: 1.27 mg/dL
[…], time 14 day
  ABSOLUTE BASOPHIL: 0 CELLS/uL
  ABSOLUTE EOSINOPHIL: 64.5 CELLS/uL
  ABSOLUTE LYMPHOCYTE: 12507.83 CELLS/uL
  ABSOLUTE MONOCYTE: 380.33 CELLS/uL
  ABSOLUTE SEGMENTED NEUTROPHIL: 2414 CELLS/uL
  BASOPHIL: 0%
  EOSINOPHIL: 0.5%
  ERYTHROCYTE COUNT: 6.1 x10E6/uL
  HEMATOCRIT: 35.4%
  HEMOGLOBIN: 12.88 G/DL
  LEUKOCYTE COUNT: 15.37 x10E3/uL
  LYMPHOCYTE: 80.83%
  MEAN CORPUSCULAR HEMOGLOBIN: 21.18 pg
  MEAN CORPUSCULAR HEMOGLOBIN CONCENTRATION: 36.43 G/DL
  MEAN CORPUSCULAR VOLUME: 58.17 fL
  MONOCYTE: 2.17%
  NEUTROPHIL: 16.5%
  NUCLEATED RED BLOOD CELLS: 0.17 /100WBC
  PLATELET COUNT: 1016 x10E3/uL
  ALANINE AMINOTRANSFERASE: 53.33 u/L
  ALBUMIN: 3.93 G/DL
  ALKALINE PHOSPHATASE: 319.83 u/L
  ASPARTATE AMINOTRANSFERASE: 84 u/L
  BLOOD UREA NITROGEN: 15.5 mg/dL
  CARBON DIOXIDE: 34 mmol/L
  CHLORIDE: 101.83 MEQ/L
  CHOLESTEROL: 57 mg/dL
  CREATININE: 0.21 mg/dL
  GLUCOSE: 182.33 mg/dL
  LACTATE DEHYDROGENASE: 104.67 u/L
  LIPASE: 9.17 u/L
  PHOSPHORUS: 11.12 mg/dL
  POTASSIUM: 5.81 MEQ/L
  SODIUM: 144.85 MEQ/L
  TOTAL BILIRUBIN: 0.18 mg/dL
  TOTAL PROTEIN: 5.92 G/DL
  URIC ACID: 1.38 mg/dL
